Assay [1] has as its system E6SM. The assay is described as follows: Compound was evaluated for the minimum cytotoxic concentration required to cause a microscopically detectable alteration of normal cell morphology. Format: functional. The conditions noted are these: Homo sapiens.
In assay [2] the test system is E6SM. In words: Compound was evaluated for the minimum inhibition concentration required to reduce virus-induced cytopathogenicity by 50%, determined against HSV-1 (TK-B2006) virus. The format is functional. The conditions noted are these: Homo sapiens. (Damage to the host cells serves as the signal in cytopathic effect assays.)
Assay [3] has as its system E6SM. The assay is described as follows: Compound was evaluated for the minimum inhibition concentration required to reduce virus-induced cytopathogenicity by 50%, determined against HSV-2 virus as means of G, 196, and Lyons strains. The format is functional. As to conditions: Homo sapiens.
In assay [4] the test system is E6SM. The assay is described as follows: Compound was evaluated for the minimum inhibition concentration required to reduce virus-induced cytopathogenicity by 50%, determined against KOS,F,McIntyre strains of HSV-1 virus. Format: functional. As to conditions: Homo sapiens.
In assay [5] the test system is Human cytomegalovirus (AD-169). The assay is described as follows: Compound was evaluated for the minimum inhibition concentration required to reduce virus-induced cytopathogenicity by 50%, determined against Cytomegalovirus (AD-169) in HEL cells.

Converted amounts (≈) assume the structure as drawn.

In assay [1], `Nc1nc2c(ncn2COCCO)c(=O)[nH]1` [ACYCLOVIR] registered an MCC greater than 200 µg/mL. Moreover, the MIC stood at 1.92 µg/mL (≈ 8.53 µM) in assay [2], 0.38 µg/mL (≈ 1.69 µM) in assay [3] and 0.075 µg/mL (≈ 0.333 µM) in assay [4].

For `C#Cc1cn(C2COC(CO)C(O)C2)c(=O)[nH]c1=O` (configuration not stated), the MIC is greater than 400 µg/mL in assay [2], greater than 400 µg/mL in assay [3], 48 µg/mL (≈ 180 µM) in assay [4] and greater than 50 µg/mL in assay [5].

On to `O=c1[nH]c(=O)n(C2COC(CO)C(O)C2)cc1Cl` (configuration not stated), for which the MCC in assay [1] was greater than 400 µg/mL. Moreover, the MIC in assay [2] was greater than 400 µg/mL; in assay [3], greater than 400 µg/mL; in assay [4] it was greater than 400 µg/mL; in assay [5], greater than 50 µg/mL.

Take `O=c1[nH]c(=O)n(C2COC(CO)C(O)C2)cc1-c1cccs1` (configuration not stated): in assay [1], the MCC was greater than 400 µg/mL. For the same molecule, the MIC in assay [2] was 240 µg/mL (≈ 740 µM); in assay [3] it was 240 µg/mL (≈ 740 µM); in assay [4], 240 µg/mL (≈ 740 µM); in assay [5], greater than 50 µg/mL.

On to `CC#Cc1cn(C2COC(CO)C(O)C2)c(=O)[nH]c1=O` (configuration not stated), for which, in assay [1], the MCC is greater than 400 µg/mL. Further, the MIC was 48 µg/mL (≈ 171 µM) in assay [2], 16 µg/mL (≈ 57.1 µM) in assay [3], 0.38 µg/mL (≈ 1.36 µM) in assay [4] and greater than 50 µg/mL in assay [5].

Molecule `O=c1[nH]c(=O)n([C@H]2C[C@H](O)[C@@H](CO)O2)cc1/C=C/Br` [BRIVUDINE] displayed an MCC in assay [1] greater than 200 µg/mL. Besides, the values for the MIC in assay [2], in assay [3] and in assay [4] were 3.2 µg/mL (≈ 9.61 µM), greater than 80 µg/mL and 0.015 µg/mL (≈ 0.045 µM), respectively.

For `C=Cc1cn(C2COC(CO)C(O)C2)c(=O)[nH]c1=O` (configuration not stated), the MCC in assay [1] is greater than 400 µg/mL. The MIC in assay [2] is 240 µg/mL (≈ 895 µM); in assay [3], 9.6 µg/mL (≈ 35.8 µM); in assay [4], 0.075 µg/mL (≈ 0.28 µM); in assay [5], greater than 50 µg/mL.

`O=c1[nH]c(=O)n(C2COC(CO)C(O)C2)cc1I` (configuration not stated) registered an MCC in assay [1] greater than 400 µg/mL. Further, the MIC is greater than 400 µg/mL in assay [2], 0.5 µg/mL (≈ 1.36 µM) in assay [3], 0.025 µg/mL (≈ 0.0679 µM) in assay [4] and greater than 40 µg/mL in assay [5].

The molecule `O=c1[nH]c(=O)n(C2COC(CO)C(O)C2)cc1C(F)(F)F` (configuration not stated) returned an MCC in assay [1] greater than 400 µg/mL. Besides, the MIC in assay [2] was 9.8 µg/mL (≈ 31.6 µM); in assay [3], 0.38 µg/mL (≈ 1.22 µM); in assay [4], 0.025 µg/mL (≈ 0.0806 µM); in assay [5], greater than 50 µg/mL.

Values taken from ChEMBL document CHEMBL1131160, “5-Substituted pyrimidines with a 1,5-anhydro-2, 3-dideoxy-D-arabino-hexitol moiety at N-1: synthesis, antiviral activity, conformational analysis, and interaction with viral thymidine kinase” (1998).
